Data as given in ChEMBL document CHEMBL1201862, “PubChem BioAssay data set” (2004).
The source made the active and inactive calls. No stated cut-off is given here; in the data, actives have a measured IC50 and inactives only a lower limit.

Tests used:
Format in all cases: functional
[1] = target: T1, Sentrin-specific protease 8 (Homo sapiens, UniProt Q96LD8);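 further: luminescence read-out of SENP8 inhibition, dose-response confirmation following an ultra-high-throughput screen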
T1 sequence (Q96LD8 whole entry): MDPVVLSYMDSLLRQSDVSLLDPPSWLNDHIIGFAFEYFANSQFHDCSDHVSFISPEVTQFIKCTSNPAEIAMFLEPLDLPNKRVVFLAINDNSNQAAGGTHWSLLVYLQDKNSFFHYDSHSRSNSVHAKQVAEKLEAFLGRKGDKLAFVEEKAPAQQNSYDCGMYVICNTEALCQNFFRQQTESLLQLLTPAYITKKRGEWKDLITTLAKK

[2] = target: T2, Sentrin-specific protease 7 (Homo sapiens, UniProt Q9BQF6);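 further: Luminescence-based dose-response confirmation of ultra-high-throughput screening hits, measuring inhibition of SENP7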
T2 sequence (Q9BQF6 whole entry): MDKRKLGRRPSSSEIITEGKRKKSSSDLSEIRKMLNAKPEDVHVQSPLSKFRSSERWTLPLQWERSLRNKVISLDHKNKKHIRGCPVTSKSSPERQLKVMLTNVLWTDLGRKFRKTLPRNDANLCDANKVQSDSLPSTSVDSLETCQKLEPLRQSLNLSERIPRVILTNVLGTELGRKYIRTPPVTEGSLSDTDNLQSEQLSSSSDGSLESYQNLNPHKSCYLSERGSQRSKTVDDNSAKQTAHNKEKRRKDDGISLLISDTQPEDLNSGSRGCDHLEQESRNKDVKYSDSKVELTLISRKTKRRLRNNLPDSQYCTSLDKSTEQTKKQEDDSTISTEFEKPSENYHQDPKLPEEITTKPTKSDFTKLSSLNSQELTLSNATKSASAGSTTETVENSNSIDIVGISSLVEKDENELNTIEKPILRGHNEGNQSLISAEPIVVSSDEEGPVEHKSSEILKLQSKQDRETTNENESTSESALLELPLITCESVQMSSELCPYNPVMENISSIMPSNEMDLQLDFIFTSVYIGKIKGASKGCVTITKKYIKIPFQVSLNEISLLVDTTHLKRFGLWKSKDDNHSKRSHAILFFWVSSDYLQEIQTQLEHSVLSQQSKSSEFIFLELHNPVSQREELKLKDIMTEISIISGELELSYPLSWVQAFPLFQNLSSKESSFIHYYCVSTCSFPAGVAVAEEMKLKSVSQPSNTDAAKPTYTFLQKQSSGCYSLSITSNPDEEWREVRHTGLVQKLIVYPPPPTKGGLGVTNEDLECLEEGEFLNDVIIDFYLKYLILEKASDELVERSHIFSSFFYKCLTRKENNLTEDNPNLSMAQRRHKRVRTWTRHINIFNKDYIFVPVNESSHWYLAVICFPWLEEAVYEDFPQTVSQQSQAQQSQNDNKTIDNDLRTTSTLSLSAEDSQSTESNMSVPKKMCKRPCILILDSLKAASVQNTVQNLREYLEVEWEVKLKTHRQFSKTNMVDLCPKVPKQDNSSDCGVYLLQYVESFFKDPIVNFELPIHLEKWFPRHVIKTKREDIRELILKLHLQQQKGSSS

[3] = target: T3, Sentrin-specific protease 6 (Homo sapiens, UniProt Q9GZR1);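 further: Luminescence-based dose-response confirmatory assay of SENP6 inhibition, following up an ultra-high-throughput screen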
T3 sequence (Q9GZR1 whole entry): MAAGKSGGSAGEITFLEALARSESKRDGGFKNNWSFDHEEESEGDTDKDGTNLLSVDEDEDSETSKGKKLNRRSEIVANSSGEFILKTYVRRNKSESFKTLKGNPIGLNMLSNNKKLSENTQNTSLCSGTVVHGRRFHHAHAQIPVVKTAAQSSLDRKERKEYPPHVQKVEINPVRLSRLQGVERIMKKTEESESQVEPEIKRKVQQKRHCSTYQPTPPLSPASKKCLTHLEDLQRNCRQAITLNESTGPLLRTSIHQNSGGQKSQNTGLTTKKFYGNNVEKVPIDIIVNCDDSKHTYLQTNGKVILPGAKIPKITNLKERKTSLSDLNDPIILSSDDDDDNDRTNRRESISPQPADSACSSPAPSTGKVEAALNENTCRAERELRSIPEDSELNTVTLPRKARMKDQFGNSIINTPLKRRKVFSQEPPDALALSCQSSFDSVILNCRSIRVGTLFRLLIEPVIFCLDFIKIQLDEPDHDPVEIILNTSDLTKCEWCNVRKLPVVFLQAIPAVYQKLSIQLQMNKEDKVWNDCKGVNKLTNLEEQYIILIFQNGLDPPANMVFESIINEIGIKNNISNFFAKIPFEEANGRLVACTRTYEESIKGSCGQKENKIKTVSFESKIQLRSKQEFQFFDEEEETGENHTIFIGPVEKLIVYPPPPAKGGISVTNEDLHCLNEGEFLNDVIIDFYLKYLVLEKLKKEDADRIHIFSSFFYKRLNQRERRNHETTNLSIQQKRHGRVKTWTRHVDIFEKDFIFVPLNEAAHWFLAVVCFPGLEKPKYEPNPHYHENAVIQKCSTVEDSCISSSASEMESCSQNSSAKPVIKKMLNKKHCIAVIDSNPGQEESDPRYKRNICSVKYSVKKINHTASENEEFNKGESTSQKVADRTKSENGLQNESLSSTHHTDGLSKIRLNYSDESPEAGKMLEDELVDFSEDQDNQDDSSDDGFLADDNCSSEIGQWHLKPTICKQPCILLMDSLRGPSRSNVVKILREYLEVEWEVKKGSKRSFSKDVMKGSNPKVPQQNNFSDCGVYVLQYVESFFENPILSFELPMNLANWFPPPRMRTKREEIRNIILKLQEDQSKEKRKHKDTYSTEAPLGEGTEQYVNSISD

Caspase-3 = target: T4, Caspase-3 (Homo sapiens, UniProt P42574);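 further: Dose-response selectivity test against caspase-3 for candidate inhibitors of sentrin-specific proteases (SENPs)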
T4 sequence (P42574 whole entry): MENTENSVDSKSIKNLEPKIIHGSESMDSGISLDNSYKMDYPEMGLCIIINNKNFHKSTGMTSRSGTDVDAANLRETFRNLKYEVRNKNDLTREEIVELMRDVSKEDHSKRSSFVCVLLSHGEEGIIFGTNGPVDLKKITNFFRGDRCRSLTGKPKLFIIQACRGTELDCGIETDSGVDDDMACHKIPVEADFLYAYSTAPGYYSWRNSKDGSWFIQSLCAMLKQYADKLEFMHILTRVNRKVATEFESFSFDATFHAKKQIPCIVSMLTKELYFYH

| SMILES | IC50 [1] | IC50 [2] | IC50 [3] | IC50 (Caspase-3) |
| --- | --- | --- | --- | --- |
| Oc1ccc(/N=C/c2ccc(OCc3ccccc3)cc2)cc1 | 24.1 µM (active) | 14.6 µM (active) | 16.4 µM (active) | 14.3 µM (active) |
| Nc1c(N2CCCC2)cc(Cl)c2nonc12 | 4.09 µM (active) | 4.09 µM (active) | 3.02 µM (active) | 9.05 µM (active) |
| O=C(NNc1cc(N2CCOCC2)nc(N2CCOCC2)n1)c1ccc([N+](=O)[O-])cc1 | 6.99 µM (active) | 6.14 µM (active) | 6.72 µM (active) | 32.4 µM (active) |
